The text below walks through data of patent US7579356B2, “Thia-tetraazaacenaphthylene kinase inhibitors” (Janssen Pharmaceutica NV, priority 2005, dated 2009).

The first assay relates to Human epidermoid A431 carcinoma. Nature of the assay: In Vivo Models - Inhibition of Tumor Growth, A431. Conditions: 100 mg/kg, oral daily for 30 days, athymic mice. As to the method:
In Vivo Models—Inhibition of Tumor Growth
The ability of test compounds to inhibit unregulated growth of human tumor cells in vivo was evaluated by implanting human tumor cells into the hindflank of athymic mice, administering a test compound and then quantifying any change in tumor size.
Human epidermoid A431 carcinoma, N87 cells and BT474 cells were implanted subcutaneously into the hindflank of female athymic mice (Charles River) and allowed to grow for 6-10 days. After a measurable tumor was established (as determined by baseline caliper measurement), the animal was administered an oral dose of the test compound daily for a period of 30 days. Tumor size was measured every five days and the degree of inhibition was determined by comparing drug-treated animals to vehicle-treated animals.
Variations of this method are intended to include intraperitoneal injection or intravenous infusion as the route of administration and administration of the test compound either alone or in a combination therapy.
The inhibition of tumor growth values are shown in Table 8 at various test concentrations, as indicated. For compounds with multiple values at one test concentration, each value represents a separate assay result.
In the case of `O=C(Nc1ccc(CN2CCCCC2)cc1)c1sc2ncnc3c2c1NC(=O)N3c1ccc(Sc2ccccc2)cc1` [Cpd 169, 4-oxo-5-(4-phenylsulfanyl-phenyl)-4,5-dihydro-3H-1-thia-3,5,6,8-tetraaza-acenaphthylene-2-carboxylic acid (4-piperidin-1-ylmethyl-phenyl)-amide], the “percent inhibition A431” value is recorded as 55.4%.

In a further assay the target is T1, HER-4 (Homo sapiens, UniProt Q15303).
T1 construct: His6 with thrombin site (N); purchased Proqinase (Freiburg, Germany)
T1 sequence (Q15303 676-1307): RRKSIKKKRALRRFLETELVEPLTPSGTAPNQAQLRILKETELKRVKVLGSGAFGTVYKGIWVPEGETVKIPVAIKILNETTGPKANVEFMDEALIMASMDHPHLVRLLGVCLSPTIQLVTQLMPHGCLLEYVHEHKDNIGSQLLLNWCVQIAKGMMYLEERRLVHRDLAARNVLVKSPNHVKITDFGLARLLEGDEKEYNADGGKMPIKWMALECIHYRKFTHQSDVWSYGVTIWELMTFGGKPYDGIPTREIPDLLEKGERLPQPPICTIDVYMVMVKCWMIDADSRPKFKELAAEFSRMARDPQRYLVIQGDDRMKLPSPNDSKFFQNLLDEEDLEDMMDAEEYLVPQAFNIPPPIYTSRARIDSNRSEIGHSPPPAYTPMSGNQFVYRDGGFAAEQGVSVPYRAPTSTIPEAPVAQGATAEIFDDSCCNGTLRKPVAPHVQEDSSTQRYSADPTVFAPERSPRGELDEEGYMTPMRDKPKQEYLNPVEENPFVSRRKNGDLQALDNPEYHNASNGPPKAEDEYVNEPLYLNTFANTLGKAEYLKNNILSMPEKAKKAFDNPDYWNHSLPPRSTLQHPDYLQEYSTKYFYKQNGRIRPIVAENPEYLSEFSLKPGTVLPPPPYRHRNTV
Nature of the assay: HER-4 Kinase Assay. It counts as biochemical.
Details: not given
As for the experimental part:
The HER-4 kinase used was purified at Proqinase (Freiburg, Germany) from a construct that consisted of a fusion of GST (Glutathione-S-Transferase), HIS6-Thrombin and the nucleotides encoding amino acids 676 to 1307 of HER-4 (Accession NM 005235).
A mixture of a 10× kinase reaction buffer (600 mM Hepes at pH 7.5, 30 mM Magnesium Chloride, 0.03 mM Sodium Vanadate and 500 μg/mL PEG 20,000), DTT (1.2 mM final from a 10 mM) stock), ATP (1 μM from a 10 mM stock), biotinylated polyGluTyr (1.5 ng/μL final from stock of 1 μg/μL) prepared by Upstate Biotechnologies, Lake Placid, N.Y.), Manganese Chloride (3 mM final from a 1 M stock), γ-^33P-ATP (10 μCl/mL stock) and water (70 μL/well) was added to each well of a Streptavidin Flashplate (Cat. # SMP103, NEN, Boston, Mass.).
Test compound stock (1 μL) was added to the appropriate wells. Diluted GST HER-4 kinase (6.7 ng/μL diluted into 50 mM Tris-HCl at pH 8.0 and 0.1% bovine serum albumin) (30 μL) was added (total volume of 200 ng/well) to initiate the reactions.
The reaction plates were incubated at 30° C. for 1 hr. The reaction was terminated by aspirating the reaction mixture from the plate wells and washing the wells three times with a 1×PBS stop buffer (300 μL) and 100 mM EDTA. After the final wash, the same stop buffer (200 μL) was again added to the wells. The plates were then sealed and read on the TopCount scintillation counter.
For a series of test concentrations, the IC50 was derived by graphing percent inhibition against the log of the concentrations tested for a given compound.
In the case of `O=C(Nc1ccc(CN2CCCCC2)cc1)c1sc2ncnc3c2c1NC(=O)N3c1ccc(Oc2ccccc2)cc1` [Cpd 96, 4-oxo-5-(4-phenoxy-phenyl)-4,5-dihydro-3H-1-thia-3,5,6,8-tetraaza-acenaphthylene-2-carboxylic acid (4-piperidin-1-ylmethyl-phenyl)-amide], the IC50 was found to be 18 nM. Take `O=C(Nc1ccc(CN2CCOCC2)cc1)c1sc2ncnc3c2c1NC(=O)N3c1ccc(Oc2ccccc2)cc1` [Cpd 97, 4-oxo-5-(4-phenoxy-phenyl)-4,5-dihydro-3H-1-thia-3,5,6,8-tetraaza-acenaphthylene-2-carboxylic acid (4-morpholin-4-ylmethyl-phenyl)-amide]: the IC50 turned out to be 99 nM.

Molecule `O=C(Nc1ccc(CN2CCOCC2)cc1)c1sc2ncnc3c2c1NC(=O)N3c1ccc(Sc2ccccc2)cc1` [Cpd 178, 4-oxo-5-(4-phenylsulfanyl-phenyl)-4,5-dihydro-3H-1-thia-3,5,6,8-tetraaza-acenaphthylene-2-carboxylic acid (4-morpholin-4-ylmethyl-phenyl)-amide] had an IC50 of 126 nM. For `O=C(Nc1ccc(CN2CCCCC2)cc1)c1sc2ncnc3c2c1NC(=O)N3c1ccc(Sc2ccccc2)cc1` [Cpd 169, 4-oxo-5-(4-phenylsulfanyl-phenyl)-4,5-dihydro-3H-1-thia-3,5,6,8-tetraaza-acenaphthylene-2-carboxylic acid (4-piperidin-1-ylmethyl-phenyl)-amide], it took 30 nM to reach half-maximal inhibition (IC50).

Molecule `CN1CCN(Cc2ccc(NC(=O)c3sc4ncnc5c4c3NC(=O)N5c3ccc(Oc4ccccc4)cc3)cc2)CC1` [Cpd 98, 4-oxo-5-(4-phenoxy-phenyl)-4,5-dihydro-3H-1-thia-3,5,6,8-tetraaza-acenaphthylene-2-carboxylic acid [4-(4-methyl-piperazin-1-ylmethyl)-phenyl]-amide] showed an IC50 of 81 nM.
